Assay results: US20100184644A1, “MUCOSAL REPAIR BY TFF DIMER PEPTIDES” (priority 2001, published 2010)
No end group written: not given here.

What was measured:
dextran induced colitis = assay: Dextran induced colitis model, luminal TFF3; assay type: in vivo, rat
Excerpt: (§1) Methods: 32 female wistar rats weighing 200 g were used in the study. The effect of luminal TFF3 was investigated in two rat models of colitis—the Mitomycin C induced colitis model (Keshavarzian A. et al. J. Lab Clin. Med. 1992; 120:778-91) and the dextran induced colitis model (Mottet N K. Gastroenterology 1972; 62:1269-71). TFF3 was administrated directly into the proximal part of the colon by means of a soft polyethylene tube which in anaesthezised rats at a laparotomy, was inserted into the colonic lumen, secured by 6-0 silk sutures and lead subcutaneously to the neck region of the rat.
Dextran colitis: In 16 rats colitis was induced by means of dextran sulphate sodium 5% administered in the drinking water. Eight of the rats were given TFF3, 5 mg/kg in 0.5 ml H2O into the colonic tube, two times each day from the day before the initiation of dextran supplementation till day 9, where the rats were sacrificed. The 8 controls recieved NaCl. The rats were sacrificed by means of an overdose of barbiturate. The colon was fixed by intraluminal injection of 10% formalin, and after 10 minutes opened and suspended on a polyethylene plate. After further 24 hours fixation the specimens were flushed with water and surface stained with 0.3% Alcian Green 3BX. The colonic specimens were investigated by means of a Wild Photomacroscope—the extent of disease and the number of ulcerations were quantitated. For histologic analysis specimens were taken out (in a blinded way) from the proximal, middle and distal colon and embedded in paraffin. Histologic sections of 5 μm were stained with PAS-hematoxylin-aurentia. The severety of colitis was scored by means of a histologic colitis score (Williams K L. et al. Gastroenterology 2001; 120:925-37).

[1] = tested on: Mitomycin C induced colitis; assay: Mitomycin C induced colitis model, luminal TFF3; assay type: in vivo, rat
Excerpt: as §1
Mitomycin C colitis: In 16 rats colitis was induced by means of Mitomycin C, 3.75 mg/kg. Eight of the rats were given TFF3, 5 mg/kg in 0.5 ml H2O, two times each day from day 4-7 into the colonic tube. The 8 controls received NaCl. The rats were sacrificed by means of an overdose of barbiturate 8 days after mitomycin administration. The colon was fixed by intraluminal injection of 10% formalin, and after 10 minutes opened and suspended on a polyethylene plate. […] The colonic specimens were investigated by means of a Wild Photomacroscope—the extent of disease and the number of ulcerations were quantitated. […] The severety of colitis was scored by means of a histologic colitis score (FIG. 5, Williams K L. et al. Gastroenterology 2001; 120:925-37).

[2] = tested on: mucin I (crude mucin, type II from porcine stomach); assay: Oscillatory rheometer measurement of mucin solution and mucin/TFF3 dimer gel-like material; conditions: for Elastic modules G′ / Viscous modulus G″: 2 ml 10% (w/v) mucin I + 10 mg TFF3 dimer in 0.4 ml water, 30 min, 20° C.
Method: FIG. 3. Oscillatory measurement of mucin solution (a) and mucin/TFF3 dimer peptide gel-like material (b). 2 ml of 10% (w/v) mucin I dissolved in 0.05% (w/v) sodiumazide was added 0.4 ml of water (a) or 0.4 ml of water containing 10 mg TFF3 dimer peptide (b). After 30 min at 20° C. a sinosoidally varying stress was applied and the strain response was detected at different frequencies. The complex viscosity (η*) ? the elastic modulus (G′) ? and the viscous modulus (G″) ? was calculated and plotted as a function of different frequencies.
(§2) Rheological measurements. Rheological properties were measured by the use of a rotational Reologica Rheometer (Reologica Instriments AB, Lund, Sweden). The instrument is equipped with a stainless steel C40 4 cone-plate (40 mm diameter plate with an angle of 4 degree) requiring a sample volume of at least 1.2 ml. The instrument was operated using instrument standard software (Version 3.6) allowing several different types of measurements. In the present study we have used the measuring programs: Constant Rate (viscosity and stress as a function of shear rate), Oscillation (complex viscosity, elastic modulus and viscous modulus at different frequencies) and Oscillation Stress Sweep (to identify the stress range inside which the measurement results are linear i.e. independent of the applied stress).
In order to characterise the mucin/TFF dimer peptide gel-like structure, the technique of oscillatory measurement in which the gel-like material are subjected to a sinusoidaily varying stress is applied and the strain response is measured. Before this measurement is carried out an oscillation stress sweep programme is used to define the so-called linear viscoelastic region. Inside this region no change of the mucin/TFF dimer peptide structure occurs and the relation between the applied stress and the measured quantities is linear.
This type of experiments allow the estimation of several rheological parameters as a function of frequency: complex viscosity η*, elastic modulus G′ and viscous modulus G″ (for detailed rheological theory see Barnes, H. A. (1989) An introduction to rheology. Elsevier and Ferguson, J. and Kemblowski, Z. (1991) Applied fluid rheology. Elsevier)

[3] = tested on: mucin I (crude mucin, type II from porcine stomach); assay: Viscosity versus shear rate (constant rate rheometer programme); conditions: 2 ml 10% (w/v) mucin I + 7.05 mg TFF3 dimer; 30 min, 20° C.; FIG. 4
Method: FIG. 4. Viscosity versus shear rate of TFF3 dimer peptides. 2 ml 10% (w/v) mucin I dissolved in 0.05% sodiumazide was added 7.05 mg TFF3 dimer dissolved in water. After 30 min at 20° C. the viscosity was measured as function of shear rate using the software programme: “constant rate”. ? mucin I alone; Δ—Δ: mucin I+TFF3 dimer.
as §2

Substance: TFF3: trefoil factor 3 given intraluminally to rats; Example 2 does not state monomer or dimer form (EEYVGLSANQCAVPAKDRVDCGYPHVTPKECNNRGCCFDSRIPGVPWCFKPLQEAECTF; not fully specified (bridges); cysteine pairing not given here; UniProt Q07654 22-80, looked up)
- Overall colitis score (histologic) (dextran induced colitis; rat, TFF3 5 mg/kg intraluminal twice daily till day 9, control (NaCl) 3.18, p<0.05): 1.1
- Histologic colitis score in the midsegment of the colon (dextran induced colitis; rat, TFF3 5 mg/kg intraluminal twice daily, control 1.8, p<0.05): 0.4
- Severity of dextran induced colitis (dextran induced colitis; rats, intraluminal treatment): reduces the severity
- Overall colitis score (histologic) ([1]; rat, TFF3 5 mg/kg intraluminal twice daily day 4-7, control (NaCl) 10.8, p<0.01): 3.4
- Severity of mitomycin induced colitis ([1]; rats, intraluminal treatment): reduces the severity

Substance: TFF3 dimer: dimer form of recombinant human TFF3; two TFF3 monomers linked by a disulfide bond between Cys57 of each monomer (EEYVGLSANQCAVPAKDRVDCGYPHVTPKECNNRGCCFDSRIPGVPWCFKPLQEAECTF; not fully specified (bridges); also: homodimer via disulfide between Cys57 of each monomer)
- Elastic modules G′ ([2]; 0.01 Hz): 19 Pa
- Viscous modulus G″ ([2]; 0.01 Hz): 18 Pa
- Elastic modules G′ ([2]; 0.1 Hz): 52 Pa
- Viscous modulus G″ ([2]; 0.1 Hz): 37 Pa
- Elastic modules G′ ([2]; 1 Hz): 86 Pa
- Viscous modulus G″ ([2]; 1 Hz): 54 Pa
- Elastic modulus and viscous modulus compared to the mucin solution ([2]; mucin/TFF3 dimer gel-like structure vs mucin solution): dramatically increased
- Effect on the viscosity of the mucin I solution [3]: significant effect
